Measurements taken from patent US12643879B2, “Functionalized heterocyclic compounds as modulators of stimulator of interferon genes (STING)” (RYVU THERAPEUTICS S.A., priority 2019, dated 2026).
Structures can show the parent of a compound that is named as a salt. Where two headings read alike, the source gives them in different places.

Tests used:
[1] = molecular target: human STING (Homo sapiens, UniProt Q86WV6); assay: Fluorescence Thermal Shift assay (binding to STING); conditions: STING 0.1 mg/mL, SyproOrange, 25 to 99° C.
Method: Compounds, constructs and conjugates of the present invention were tested for binding to human STING in Fluorescence Thermal Shift assay. STING was preincubated with the compounds for 20 minutes in 50 mM Hepes, 150 mM NaCl, pH 7.5 in 15 or 16 μl volume, following by adding 4 μl of SyproOrange dye dilution (ThermoFisher, cat no. S-6651). Final STING concentration was 0.1 mg/mL. Thermal unfolding was performed in Real-Time PCR QuantStudio 6 Flex System (Applied Biosystems), from 25 to 99° C., with continuous ramp mode and ramp rate 0.033° C./s. The data were analyzed using Protein Thermal Shift Software (ThermoFisher).

[2] = test system: interferon regulatory factor (IRF) pathway in THP-1 dual cells; assay: THP-1 Dual reporter assay, IRF pathway (luciferase); assay type: cell-based; conditions: Homo sapiens, THP1-Dual, read-out: THP1 Dual EC50 (μM) IRF
Summary of the method: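 After 18 h stimulation with STING agonist, culture medium was sampled. IRF activity was read as luminescence of ISG54/ISRE-driven luciferase right after adding reagent; NF-κB activity as absorbance at 630 or 655 nm of SEAP (IFN-β minimal promoter with NF-κB elements) after 1 or 2 h at 37° C.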

[3] = test system: NF-κB pathway in THP-1 dual cells; assay: THP-1 Dual reporter assay, NF-κB pathway (SEAP); assay type: cell-based; conditions: Homo sapiens, THP1-Dual, read-out: THP1 Dual EC50 (μM) NFkB
Summary of the method: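 IRF output: ISRE-ISG54 luciferase in collected medium, luminescence measured immediately on reagent addition. NF-κB output: SEAP under NF-κB-element IFN-β promoter, detection medium 1 or 2 h at 37° C, absorbance 630 or 655 nm. Cells were stimulated with STING agonist for 18 h beforehand.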

[4] = 18 h stimulation, absorbance at 630 or 655 nm

human STING, sequence (Q86WV6 whole entry H232R): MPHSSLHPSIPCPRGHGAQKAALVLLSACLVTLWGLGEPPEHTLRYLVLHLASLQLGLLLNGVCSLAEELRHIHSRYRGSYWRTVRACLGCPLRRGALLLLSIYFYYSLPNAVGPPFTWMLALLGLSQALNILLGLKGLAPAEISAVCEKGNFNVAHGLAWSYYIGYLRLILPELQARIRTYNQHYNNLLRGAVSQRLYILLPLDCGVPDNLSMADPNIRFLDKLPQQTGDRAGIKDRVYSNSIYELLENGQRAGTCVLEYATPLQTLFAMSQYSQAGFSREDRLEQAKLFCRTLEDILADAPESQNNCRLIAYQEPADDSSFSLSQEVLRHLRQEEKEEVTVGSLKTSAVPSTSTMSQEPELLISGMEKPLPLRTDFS

Row | hSTING FTS binding assay (ΔT C. °) [1] | EC50 ([2]; 18 h stimulation, luminescence) [µM] | EC50 [3, 4] [µM] | SMILES | EC50 ([2]; 18 h) [µM] | EC50 ([3]; 18 h) [µM]
1 | +++ (+++=ΔTm ≥20° C.) | – | – | Cc1ccc(N2CCC[C@H](N(Cc3ccnc(C)c3)Cc3cn(C4CC4)c4cc(N5CC[C@@H](N)C(F)(F)C5)c(F)cc4c3=O)C2)cn1.Cl (single isomer, unassigned) [Example 56] | – | –
2 | +++ (+++=ΔTm ≥20° C.) | < 1 | < 1 | Cc1ccc(N2CCC[C@H](N(Cc3ccnc(N)c3)Cc3cn(C4CC4)c4cc(F)c(F)cc4c3=O)C2)cn1.Cl [Example 5, 3-({[(2-Aminopyridin-4-yl)methyl][(3S)-1-(6-methylpyridin-3-yl)piperidin-3-yl]amino}methyl)-1-cyclopropyl-6,7-difluoro-1,4-dihydroquinolin-4-one hydrochloride] | – | –
3 | +++ (+++=ΔTm ≥20° C.) | < 1 | < 1 | Cc1ccc(N2CCC[C@H](N(Cc3ccnc(C)c3)Cc3cn(C4CC4)c4cc(NCCN)c(F)cc4c3=O)C2)cn1 [Example 8, 7-[(2-Aminoethyl)amino]-1-cyclopropyl-6-fluoro-3-({[(3S)-1-(6-methylpyridin-3-yl)piperidin-3-yl][(2-methylpyridin-4-yl)methyl]amino}methyl)-1,4-dihydroquinolin-4-one] | – | –
4 | +++ (+++=ΔTm ≥20° C.) | < 1 | < 1 | Cc1ccc(N2CCC[C@H](N(Cc3ccnc(C)c3)Cc3cn(C4CC4)c4cc(NCCN(C)C)c(F)cc4c3=O)C2)cn1 [Example 9, 1-Cyclopropyl-7-{[2-(dimethylamino)ethyl]amino}-6-fluoro-3-({[(3S)-1-(6-methylpyridin-3-yl)piperidin-3-yl][(2-methylpyridin-4-yl)methyl]amino}methyl)-1,4-dihydroquinolin-4-one] | – | –
5 | +++ (+++=ΔTm ≥20° C.) | < 1 | < 1 | Cc1ccc(N2CCC[C@H](N(Cc3ccnc(C)c3)Cc3cn(C4CC4)c4cc(OCCN)c(F)cc4c3=O)C2)cn1 [Example 10, 7-(2-Aminoethoxy)-1-cyclopropyl-6-fluoro-3-({[(3S)-1-(6-methylpyridin-3-yl)piperidin-3-yl][(2-methylpyridin-4-yl)methyl]amino}methyl)-1,4-dihydroquinolin-4-one] | – | –
6 | – | 1 to 10 | > 10 | Cc1cc(CN(Cc2cn(C3CC3)c3cc(OCCO)c(F)cc3c2=O)[C@H]2CCCN(c3cccnn3)C2)ccn1 [Example 96, 1-cyclopropyl-6-fluoro-7-(2-hydroxyethoxy)-3-({[(2-methylpyridin-4-yl)methyl][(3S)-1-(pyridazin-3-yl)piperidin-3-yl]amino}methyl)-1,4-dihydroquinolin-4-one] | – | –
7 | – | < 1 | < 1 | COc1cc(CN(Cc2cn(C3CC3)c3cc(F)c(F)cc3c2=O)[C@H]2CCCN(c3ccc(NC(C)=O)nc3)C2)ccn1 [Example 99, N-{5-[(3S)-3-{[(1-cyclopropyl-6,7-difluoro-4-oxo-1,4-dihydroquinolin-3-yl)methyl][(2-methoxypyridin-4-yl)methyl]amino}piperidin-1-yl]pyridin-2-yl}acetamide] | – | –
8 | – | < 1 | < 1 | Cc1cc(CN(Cc2cn(C3CC3)c3cc(OCCO)c(F)cc3c2=O)[C@H]2CCCN(c3ccc(C4CC4)nc3)C2)ccn1 [Example 100, 1-cyclopropyl-3-({[(3S)-1-(6-cyclopropylpyridin-3-yl)piperidin-3-yl][(2-methylpyridin-4-yl)methyl]amino}methyl)-6-fluoro-7-(2-hydroxyethoxy)-1,4-dihydroquinolin-4-one] | – | –
9 | – | 1 to 10 | 1 to 10 | Cc1cc(CN(Cc2cn(C3CC3)c3cc(Cl)c(F)cc3c2=O)[C@H]2CCCN(c3ccc(C(=O)O)nc3)C2)ccn1 [Example 102] | – | –
10 | – | < 1 | < 1 | Cc1cc(CN(Cc2cn(C3CC3)c3cc(Cl)c(F)cc3c2=O)[C@H]2CCCN(c3ccc(C(N)=O)nc3)C2)ccn1 [Example 103, 5-[(3S)-3-{[(7-Chloro-1-cyclopropyl-6-fluoro-4-oxo-1,4-dihydroquinolin-3-yl)methyl][(2-methylpyridin-4-yl)methyl]amino}piperidin-1-yl]pyridine-2-carboxamide] | – | –

The remaining lines, values behind:

Row | SMILES | hSTING FTS binding assay (ΔT C. °) [1] | EC50 ([2]; 18 h stimulation, luminescence) [µM] | EC50 [3, 4] [µM] | EC50 ([2]; 18 h) [µM] | EC50 ([3]; 18 h) [µM]
11 | Cc1cc(CN(Cc2cn(C)c3ccccc3c2=O)[C@H]2CCCN(c3cccc(N)c3)C2)ccn1.Cl [Example 1, 3-({[(3S)-1-(3-Aminophenyl)piperidin-3-yl][(2-methylpyridin-4-yl)methyl]amino}methyl)-1-methyl-1,4-dihydroquinolin-4-one hydrochloride] | + (+=ΔTm ≤10° C.) | 1 to 10 | 1 to 10 | – | –
12 | Cc1cc(CN(Cc2cn(C)c3ccccc3c2=O)[C@H]2CCCN(c3ccc(N)nc3)C2)ccn1 [Example 2, 3-({[(3S)-1-(6-Aminopyridin-3-yl)piperidin-3-yl][(2-methylpyridin-4-yl)methyl]amino}methyl)-1-methyl-1,4-dihydroquinolin-4-one] | +++ (+++=ΔTm ≥20° C.) | < 1 | < 1 | – | –
13 | Cc1cc(CN(Cc2cn(C)c3ccccc3c2=O)[C@H]2CCCN(c3ccc(CN)nc3)C2)ccn1.Cl [Example 3, 3-({[(3S)-1-[6-(Aminomethyl)pyridin-3-yl]piperidin-3-yl][(2-methylpyridin-4-yl)methyl]amino}methyl)-1-methyl-1,4-dihydroquinolin-4-one hydrochloride] | + (+=ΔTm ≤10° C.) | < 1 | 1 to 10 | – | –
14 | Cc1ccc(N2CCC[C@H](N(Cc3ccnc(C)c3)Cc3cn(C)c4cc(N5CCC(N)CC5)ccc4c3=O)C2)cn1.Cl [Example 6, 7-(4-Aminopiperidin-1-yl)-1-methyl-3-({[(3S)-1-(6-methylpyridin-3-yl)piperidin-3-yl][(2-methylpyridin-4-yl)methyl]amino}methyl)-1,4-dihydroquinolin-4-one hydrochloride] | ++ (++=10<ΔTm <20° C.) | 1 to 10 | 1 to 10 | – | –
15 | Cc1ccc(N2CCC[C@H](N(Cc3ccnc(C)c3)Cc3cn(C4CC4)c4cc(N)c(F)cc4c3=O)C2)cn1 [Example 7, 7-Amino-1-cyclopropyl-6-fluoro-3-({[(3S)-1-(6-methylpyridin-3-yl)piperidin-3-yl][(2-methylpyridin-4-yl)methyl]amino}methyl)-1,4-dihydroquinolin-4-one] | +++ (+++=ΔTm ≥20° C.) | < 1 | < 1 | – | –
16 | Cc1cc(CN(Cc2cn(C(C)C)c3cc(F)c(F)cc3c2=O)[C@H]2CCCN(c3ccc(N)nc3)C2)ccn1.Cl [Example 24, 3-({[(3)-1-(6-aminopyridin-3-yl)piperidin-3-yl][(2-methylpyridin-4-yl)methyl]amino}methyl)-6,7-difluoro-1-(propan-2-yl)-1,4-dihydroquinolin-4-one hydrochloride] | +++ (+++=ΔTm ≥20° C.) | – | – | – | –
17 | Cc1ccc(N2CCC[C@H](N(Cc3ccnc(C)c3)Cc3cn(C4CC4)c4cc(NC(=O)CN)c(F)cc4c3=O)C2)cn1 [Example 25, 2-amino-N-[1-cyclopropyl-6-fluoro-3-({[(3S)-1-(6-methylpyridin-3-yl)piperidin-3-yl][(2-methylpyridin-4-yl)methyl]amino}methyl)-4-oxo-1,4-dihydroquinolin-7-yl]acetamide] | +++ (+++=ΔTm ≥20° C.) | – | – | – | –
18 | Cc1cc(CN(Cc2cn(C3CC3)c3cc(OCCO)c(F)cc3c2=O)[C@H]2C[C@H](F)CN(c3cnccn3)C2)ccn1 [Example 95, 1-cyclopropyl-6-fluoro-3-({[(3S,5S)-5-fluoro-1-(pyrazin-2-yl)piperidin-3-yl][(2-methylpyridin-4-yl)methyl]amino}methyl)-7-(2-hydroxyethoxy)-1,4-dihydroquinolin-4-one hydrochloride] | – | < 1 | < 1 | – | –
19 | Cc1cc(CN(Cc2cn(C3CC3)c3cc(OCCO)c(F)cc3c2=O)[C@H]2CCCN(c3ccc(Cl)nc3)C2)ccn1 [Example 97, 3-({[(3S)-1-(6-chloropyridin-3-yl)piperidin-3-yl][(2-methylpyridin-4-yl)methyl]amino}methyl)-1-cyclopropyl-6-fluoro-7-(2-hydroxyethoxy)-1,4-dihydroquinolin-4-one hydrochloride] | – | – | – | < 1 | < 1
20 | Cc1cc(CN(Cc2cn(C3CC3)c3cc(N4CCC[C@H](O)C4)c(F)cc3c2=O)[C@H]2CCCN(c3cnccn3)C2)ccn1 [Example 98, 1-cyclopropyl-6-fluoro-7-[(3S)-3-hydroxypiperidin-1-yl]-3-({[(2-methylpyridin-4-yl)methyl][(3S)-1-(pyrazin-2-yl)piperidin-3-yl]amino}methyl)-1,4-dihydroquinolin-4-one hydrochoride] | – | < 1 | < 1 | – | –
21 | Cc1cc(CN(Cc2cn(C)c3ccccc3c2=O)[C@H]2CCCN(c3ccc(OCCO)nc3)C2)ccn1 [Example 101, 3-({[(3S)-1-[6-(2-hydroxyethoxy)pyridin-3-yl]piperidin-3-yl][(2-methylpyridin-4-yl)methyl]amino}methyl)-1-methyl-1,4-dihydroquinolin-4-one] | – | 1 to 10 | 1 to 10 | – | –
